This is an account of results in patent US11135186B2, “Regulators of the endoplasmic reticulum proteostasis network” (The Scripps Research Institute, priority 2015, dated 2021).

The subject of assay [1] is XBP1-RLuc reporter (IRE1/XBP1s arm of the UPR). Nature of the assay: XBP1-RLuc splicing reporter, 1536-well screen in HEK293T-Rex cells. In kind it is cell-based. The following applies: % Tg (500 nM) activation, triplicate confirmation screen at 6.8 μM, 18 h. From the text: To evaluate the selectivity of our screening hits for ATF6, we employed an alternative luciferase reporter to measure activation of the IRE1/XBP1s arm of the UPR. This reporter contains Renilla luciferase (RLuc) expressed out of frame downstream of the XBP1 splice site, preventing RLuc translation in the absence of stress (FIG. 2b)^36,37. In response to IRE1 activation, the 26-nt XBP1 intron is removed, producing a frame shift that allows for RLuc translation and activity. Robust dose-dependent activation of the XBP1-RLuc reporter upon addition of the ER stressors Tg and Tm was confirmed in HEK293T-Rex cells stably expressing the XBP1-RLuc reporter, producing a Z′ score of 0.75 for Tg.
(§1) HEK293T-Rex cells incorporating either the ERSE-FLuc or XBP1s-RLuc reporters were collected by trypsinization and resuspended at a density of 500,000 cells per mL. The assay was started by dispensing 5 μL of cell suspension into each well of white, solid-bottom 1536-well plates using a flying reagent dispenser (FRD) and placed into an online incubator 3 h. Cells were then treated with 34 nL/well of either test compounds to give final concentrations of 6.8 μM, DMSO (Low control, final concentration 0.68%, 0% activation) or […] of Delta-7 thapsigargin (High control, final concentration 500 nM, 100% activation). Plates were incubated for 18 h at 37° C., removed from the incubator and equilibrated to room temperature for 10 min. Luciferase activity was detected by addition of 5 μL of ONE-Glo reagent (Promega) to each well. After a 10 min incubation time, light emission was measured with the ViewLux reader (PerkinElmer). The percent activation of each test compound was calculated as follows: % Activation=100*(Test Compound−Median Low Control)/(Median High Control ˜Median Low Control).

In assay [2] the test system is ERSE-FLuc reporter (ATF6 arm of the UPR). Briefly: ERSE-FLuc reporter, 1536-well confirmation screen in HEK293T-Rex cells. In kind it is cell-based. The following applies: % Tg (500 nM) activation, triplicate confirmation screen at 6.8 μM, 18 h.
Description: We employed a transcriptional reporter that quantifies activation of the ATF6 arm of the UPR in HEK293T-Rex cells. This reporter contains a fragment of the UPR-inducible BiP promoter, including three ER stress-responsive elements (ERSEs), driving expression of firefly luciferase (ERSE-FLuc; FIG. 1a)^34. We previously employed this reporter for a small-scale screen using the 1280 member compound Library of Pharmacologic Active Compounds (LoPAC) to find small molecules that activate the UPR^8. […] Optimization and miniaturization of this assay to 1536-well format was performed at the Scripps Research Institute Molecule Screening Center (SRIMSC).
as §1

In assay [3] the test system is BiP expression in ALMC-2 cells. Briefly: BiP qPCR in ALMC-2 cells. In kind it is cell-based, human. The following applies: 10 μM, 6 h. The procedure: Cells were treated as described at 37° C., washed with Dulbecco's phosphate-buffered saline (Gibco), and then RNA was extracted using the RNeasy Mini Kit (Qiagen). qPCR reactions were performed on cDNA prepared from 500 ng of total cellular RNA using the QuantiTect Reverse Transcription Kit (Qiagen). The FastStart Universal SYBR Green Master Mix (Roche), cDNA, and appropriate human primers^4 or mouse primers (BiP; […] (SEQ ID NO: 5) and […] (SEQ ID NO: 6) purchased from Integrated DNA Technologies were used for amplifications (45 cycles of 1 min at 95° C., 10 s at 95° C., 30 sec at 60° C.) in an ABI 7900HT Fast Real Time PCR machine. Primer integrity was assessed by a thermal melt to confirm homogeneity and the absence of primer dimers. Transcripts were normalized to the housekeeping gene Rplp2 and all measurements were performed in triplicate. Data were analyzed using the RQ Manager and DataAssist 2.0 softwares (ABI).

Assay [4] has as its system ERSE-FLuc reporter (ATF6 arm of the UPR). Briefly: ERSE-FLuc reporter, 96-well, HEK293T-Rex cells (SAR and S1P inhibition). The assay is classed as cell-based. Conditions: for ERSE reporter activity relative to 147: HEK293T-Rex, 10 μM. The procedure:
HEK293T-Rex cells incorporating the ERSE-FLuc reporter and HEK293^DAX cells were plated approximately 20,000 cells/well in flat-bottomed, black 96-well assay plates (Costar, Corning, Inc.) overnight prior to compound administration. Cells were treated with compounds as described for 12-18 h then the plates were equilibrated to room temperature and 50 μL of SteadyLite (PerkinElmer) was added to each well. Luminescence activity was measured in a Safire II microplate reader with a 1000 ms integration time.

The next assay deals with ^FTTTR^WT. Briefly: [35S] metabolic labeling, secretion of flag-tagged TTR^WT from HepG2^ATF6 cells. Conditions: 15 h pretreatment, 10 μM compound or 1 μM Tg, 4 h chase. The assay is classed as cell-based. The procedure: (§2) HepG2 cells or HEK293T cells plated on poly-D-lysine coated plates were metabolically labeled in DMEM-Cys/-Met (CellGro) supplemented with glutamine, penicillin/streptomycin, dialyzed fetal bovine serum, and EasyTag EXPRESS^35S Protein Labeling Mix (Perkin Elmer) for 30 min. Cells were washed twice with complete media and incubated in prewarmed DMEM for the indicated times. Media or lysates were harvested at the indicated times. Lysates were prepared in RIPA buffer with fresh protease inhibitor cocktail (Roche). FLAG tagged TTR variants or ALLC were immunopurified using M1 anti-FLAG agarose beads (Sigma-Aldrich) and washed three times with RIPA buffer. The immunoisolates were then eluted by boiling in Laemmli buffer and separated on SDS-PAGE. For total secreted media, 15 uL aliquots from media incubated for 4 hrs on pulsed cells were run on a SDS-PAGE. The gels were then dried, exposed to phosphorimager plates (GE Healthcare), and imaged with a Typhoon imager. Band intensities were quantified by densitometry in ImageQuant. Fraction secreted was calculated using the equation: fraction secreted=[extracellular [^35S]-LC signal at t=t/(extracellular [^35S]-LC signal at t=0+intracellular [^35S]-LC signal at t=0)]. Fraction remaining was calculated using the equation: [(extracellular [^35S]-LC signal at t=t+intracellular [^35S]-LC signal at t=t)/(extracellular [^35S]-LC signal at t=0+ intracellular [^35S]-LC signal at t=0)].

The subject of the next assay is HEK293T-Rex cells. Briefly: mRNA-Seq transcriptional profiling and geneset analysis in HEK293T-Rex cells. The following applies: 6 h, compounds 10 μM, Tg 1 μM. In kind it is cell-based, human. The procedure: HEK293T-Rex and HEK293^DAX cells in 12-well plates were treated for 6 h with vehicle, 1 μM Tg, 10 μM TMP (in HEK293^DAX), or 10 μM 132, 147 or 263 in biological triplicate at 37° C. Cells were harvested, and RNA was extracted using the RNeasy Mini Kit (Qiagen). Total RNA was quantified using NanoDrop (ND-1000). Samples were run on the Illuina HiSeq system.
Single end, 100 bp-long reads from RNA-Seq experiments were aligned to the GRCh37.p13 human genome reference assembly using SeqMan NGen 11.2.1 (DNAStar, Inc.). The assembly data were then imported into ArrayStar with QSeq (DNAStar, Inc.) to quantify the gene expression levels. The sequence counts were normalized to reads per kilobase per million (RPKM) after filtering out non-mRNA sequence features. The statistical significance of the difference between the expression levels of a gene under different conditions was assessed using a Student's t-test with the Benjamini-Hochberg multiple testing correction.
ATF6- and XBP1s-selective target genes were identified from transcriptional profiles of HEK293D^X cells following stress-independent activation of TMP-dependent DHFR-ATF6 and/or tetracycline inducible XBP1s, as previously described^4. PERK-selective target genes were identified from^8. Only ATF6-, XBP1s- or PERK-selective genes induced >1.5 fold in Tg-treated samples were used in this analysis. The log transformed fold-increase of these target genes in HEK293T-Rex cells treated with the respective ER proteostasis regulators were then normalized to the log transformed fold increase of these genes induced by Tg treatment. The plots shown in FIG. 5b-e were prepared as box and whisker plots using Kaleidograph. Differential activation of the ATF6, XBP1s, and PERK genesets was assessed by one-way ANOVA and significance of pairwise comparison confirmed by unpaired t-test. An analogous strategy was employed to prepare the heat map using transcriptional data from the MGE analysis.

The subject of assay [5] is endogenous secretory proteome of HepG2^ATF6 cells. Nature of the assay: [35S] metabolic labeling, total secreted protein from HepG2^ATF6 cells. The assay is classed as cell-based. Conditions: 15 h pretreatment, 10 μM compound or 1 μM Tg, 4 h chase. The procedure:
as §2

The next assay has as its system ^FTTTR^A25T. Nature of the assay: [35S] metabolic labeling, secretion of flag-tagged TTR^A25T from HepG2^ATF6 cells. The assay is classed as cell-based. Conditions: 15 h pretreatment, 10 μM compound or 1 μM Tg, 4 h chase. The procedure: as §2

Turning to `CCCCNNC(=O)c1ccc(Br)cc1` [Compound 5], the “% XBP1-RLuc activation” value in assay [1] is given as 9.1 ± 0.7%. For the same molecule, in assay [2], the “% ERSE-FLuc activation” value came out at 60.9 ± 6.0%.

Take `CCCc1cc(C(=O)Nc2cc(C)ccc2O)no1` [Compound 145]: the “% XBP1-RLuc activation” value in assay [1] came to 24.5 ± 4.7%. Further, in assay [3], the “expression of the ATF6 target gene BiP in ALMC-2 cells” value is “induced”. The “% ERSE-FLuc activation” value in assay [2] came out at 83.4 ± 6.3%.

Regarding `O=C1N/C(=C\c2ccc(O)cc2)C(=O)N1c1cccc(Cl)c1` [Compound 238], the “% ERSE-FLuc activation” value in assay [2] is 68.2 ± 5.7%.

With `Cc1cc(C)c(OCC(=O)N/N=C/c2ccc(Cl)c(O)c2)c(Br)c1` [Compound 258], the “% XBP1-RLuc activation” value in assay [1] is on record as 32.6 ± 1.0%. Also, the “% ERSE-FLuc activation” value in assay [2] was found to be 28.6 ± 6.1%.

Turning to `COc1ccc(CCC(=O)Nc2cc(C)ccc2O)cc1` [RP14], the “ERSE reporter activity relative to 147” value in assay [4] was “slightly decrease or do not change”.

Turning to `COc1ccccc1CCC(=O)Nc1cc(C)ccc1O` [RP23], the “ERSE reporter activity relative to 147” value in assay [4] is on record as “slightly decrease or do not change”.

As to `Cc1ccc(O)c(NC(=O)CCc2ccccc2F)c1` [RP24], the “ERSE reporter activity relative to 147” value in assay [4] is on record as “increase”.

For `Cc1ccc(O)c(NC(=O)CCc2ccccc2C)c1` [RP25], in assay [4], the “ERSE reporter activity relative to 147” value is “slightly decrease or do not change”.

With `Cc1ccc(O)c(NC(=O)CCc2ccccc2Cl)c1` [RP26], the “ERSE reporter activity relative to 147” value in assay [4] was “increase”.

Turning to `Cc1ccc(O)c(NC(=O)CCc2c(Cl)cccc2Cl)c1` [RP27], the “ERSE reporter activity relative to 147” value in assay [4] is “decreases activity”.

`C/C=C(/C)C(=O)O[C@H]1C(C)=C2[C@H]([C@@H]1OC(=O)CCCCCCC)[C@@](C)(OC(C)=O)C[C@H](OC(=O)CCC)[C@@]1(O)[C@H]2OC(=O)[C@@]1(C)O` [Tg, thapsigargin, reference compound]: in the assay on ^FTTTR^WT, the “^FTTTR^WT secretion (in words)” value is “reduced”. In the assay with HEK293T-Rex cells (ATF6-selective gene), the “BiP mRNA-Seq fold change (relative to Vh)” value is given as 11.6 fold, the “GRP94 mRNA-Seq fold change (relative to Vh)” value was 4.2 fold and the “SEL1L mRNA-Seq fold change (relative to Vh)” value was found to be 7.6 fold. Further, in the assay on HEK293T-Rex cells (HSF1 target gene), the “DNAJB1 mRNA-Seq fold change (relative to Vh)” value was 0.5 fold, the “HSPA1A mRNA-Seq fold change (relative to Vh)” value amounted to 0.3 fold and the “HSPA8 mRNA-Seq fold change (relative to Vh)” value was determined as 0.3 fold. In addition, in the assay on HEK293T-Rex cells (PERK target gene), the “ASNS mRNA-Seq fold change (relative to Vh)” value is on record as 4.2 fold, the “DDIT3 (CHOP) mRNA-Seq fold change (relative to Vh)” value is 13.2 fold and the “TrIB3 mRNA-Seq fold change (relative to Vh)” value was 8.2 fold. Moreover, in the assay on HEK293T-Rex cells (XBP1s- or ATF6-target gene), the “ERdj3 mRNA-Seq fold change (relative to Vh)” value was determined as 4.0 fold, the “HYOU1 mRNA-Seq fold change (relative to Vh)” value worked out at 6.1 fold and the “p58IPK mRNA-Seq fold change (relative to Vh)” value was 3.9 fold. Moreover, in the assay on HEK293T-Rex cells (XBP1s-selective gene), the “DNAJC10 mRNA-Seq fold change (relative to Vh)” value is reported as 2.1 fold, the “HSPA13 mRNA-Seq fold change (relative to Vh)” value is 4.2 fold and the “SEC24D mRNA-Seq fold change (relative to Vh)” value was determined as 6.6 fold. In addition, the “accumulation of [35S]-labeled protein in media (total secreted proteome)” value in assay [5] was “significantly impaired”. Also, the “ERSE-FLuc activation on co-addition of the S1P inhibitor PF-429242” value in assay [4] (PF-429242 10 μM, 18 h, regulators 10 μM, Tg 500 nM) is “impeded”. Further, the “^FTTTR^A25T secretion (in words)” value in the assay on ^FTTTR^A25T was “reduced”.
